Assay [1] deals with T1, hMC5-R (Homo sapiens, UniProt P33032).
T1 construct: expressed in transfected cells; host or cells: CHO-K1
In words: Radioligand binding assay, [125I]-NDP-α-MSH competition, CHO-K1 membranes.

Assay [2] concerns the target T2, hMC4-R (Homo sapiens, UniProt P32245).
T2 construct: expressed in transfected cells; host or cells: CHO-K1
The description is as above.

The target in assay [3] is T3, hMC1-R (Homo sapiens, UniProt Q01726).
T3 construct: expressed in transfected cells; host or cells: CHO-K1
T3 sequence (Q01726 whole entry): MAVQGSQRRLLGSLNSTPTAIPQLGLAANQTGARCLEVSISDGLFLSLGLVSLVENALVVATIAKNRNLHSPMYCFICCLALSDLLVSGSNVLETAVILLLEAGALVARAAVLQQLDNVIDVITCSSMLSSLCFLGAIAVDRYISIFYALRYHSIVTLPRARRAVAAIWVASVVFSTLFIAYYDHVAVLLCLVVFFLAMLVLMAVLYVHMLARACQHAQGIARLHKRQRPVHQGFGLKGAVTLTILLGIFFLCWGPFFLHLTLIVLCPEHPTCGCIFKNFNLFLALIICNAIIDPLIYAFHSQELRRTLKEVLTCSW
The assay can be described thus: cyclic AMP bioassay (ECL) in CHO-K1 cells. It counts as cell-based.

The target in assay [4] is T2, hMC4-R. In words: cyclic AMP bioassay (ECL) in CHO-K1 cells. It counts as cell-based.
For assay [5], the target named is T1, hMC5-R. In words: cyclic AMP bioassay (ECL) in CHO-K1 cells. It counts as cell-based.
The target in assay [6] is T4, hMC3-R (Homo sapiens, UniProt P41968).
T4 construct: expressed in transfected cells; host or cells: CHO-K1
T4 sequence (P41968 whole entry): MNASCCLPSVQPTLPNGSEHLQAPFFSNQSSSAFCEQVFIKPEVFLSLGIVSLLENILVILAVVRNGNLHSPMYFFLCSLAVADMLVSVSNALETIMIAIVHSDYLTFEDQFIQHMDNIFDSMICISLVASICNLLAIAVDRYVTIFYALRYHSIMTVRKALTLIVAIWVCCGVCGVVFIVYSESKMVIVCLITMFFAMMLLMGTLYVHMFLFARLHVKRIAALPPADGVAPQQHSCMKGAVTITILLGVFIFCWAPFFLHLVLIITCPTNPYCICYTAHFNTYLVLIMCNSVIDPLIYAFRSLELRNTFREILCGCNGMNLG
The assay can be described thus: Radioligand binding assay, [125I]-NDP-α-MSH competition, CHO-K1 membranes. Conditions: Table 5.

Assay [7] deals with T3, hMC1-R. The description is as above.
In assay [8] the target is T4, hMC3-R. The assay can be described thus: cyclic AMP bioassay (ECL) in CHO-K1 cells. The format is cell-based.
[9] abbreviates: Table 9A/9B, read-out: EC50 hMC1-R.
Setting [10] is: Table 9A/9B, read-out: EC50 hMC4-R.
Setting [11] is: Table 9A/9B, read-out: EC50 hMC5-R.
[12] abbreviates: Table 9A/9B, read-out: EC50 hMC3-R.

The record followed here is patent US20120135923A1, “Use of Melanocortins to Treat Dyslipidemia” (IPSEN PHARMA, S.A.S., priority 2009, published 2012).

The term pKi denotes the Ki on a negative log10 scale, so that one unit is a factor of ten. Broadly, the pEC50 is −log10 of the EC50, conventionally taken in molar units.

pEC50, pKi: −log10 of the molar value. Like-named read-outs stand apart in the source and are kept apart here. Bridge positions count the residues as written; N and C are the ends. Square brackets hold non-standard residues; d marks the D form. Peptide text beside a SMILES is read from it. d2Nal = N[C@H](Cc1ccc2ccccc2c1)C(=O)O; Bta = N[C@@H](Cc1csc2ccccc12)C(=O)O; Nle = CCCC[C@H](N)C(=O)O; βAla = NCCC(=O)O

T1 sequence (P33032 whole entry): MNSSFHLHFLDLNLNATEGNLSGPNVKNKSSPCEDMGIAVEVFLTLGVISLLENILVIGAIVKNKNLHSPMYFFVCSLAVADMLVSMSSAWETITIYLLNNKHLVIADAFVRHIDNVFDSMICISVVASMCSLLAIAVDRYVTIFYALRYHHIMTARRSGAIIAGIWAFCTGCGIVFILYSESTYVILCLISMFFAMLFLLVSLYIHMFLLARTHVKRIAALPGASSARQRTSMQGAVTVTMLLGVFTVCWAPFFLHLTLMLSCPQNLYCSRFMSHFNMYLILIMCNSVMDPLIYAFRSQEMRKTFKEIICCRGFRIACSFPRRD
T2 sequence (P32245 whole entry): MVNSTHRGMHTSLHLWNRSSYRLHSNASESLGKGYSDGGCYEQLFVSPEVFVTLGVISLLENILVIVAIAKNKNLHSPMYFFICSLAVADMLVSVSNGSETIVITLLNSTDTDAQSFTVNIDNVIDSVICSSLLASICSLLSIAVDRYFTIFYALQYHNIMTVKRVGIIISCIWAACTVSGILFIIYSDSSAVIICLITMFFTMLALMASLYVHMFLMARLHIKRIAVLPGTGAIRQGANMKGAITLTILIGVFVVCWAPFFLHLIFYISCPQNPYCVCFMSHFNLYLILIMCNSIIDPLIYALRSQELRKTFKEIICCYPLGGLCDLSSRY

Regarding `CC(=O)N[C@H]1CSSC[C@@H](C(=O)N2CCC[C@H]2C(=O)N2CCC[C@H]2C(=O)N[C@@H](CCCCN)C(=O)N[C@@H](CC(=O)O)C(=O)NCCC(=O)N[C@@H](CCCNC(=N)N)C(=O)N[C@@H](CCCNC(=N)N)C(=O)N[C@@H](CCCCN)C(=O)N[C@@H](CCCNC(=N)N)C(=O)N[C@@H](CCCNC(=N)N)C(=O)N[C@@H](CCC(N)=O)C(=O)N[C@@H](CCCNC(=N)N)C(=O)N[C@@H](CCCNC(=N)N)C(=O)N[C@@H](CCCNC(=N)N)C(N)=O)NC(=O)[C@H](C)NC(=O)[C@H](Cc2csc3ccccc23)NC(=O)[C@H](CCCNC(=N)N)NC(=O)[C@@H](Cc2ccc3ccccc3c2)NC(=O)[C@H](Cc2c[nH]cn2)NC(=O)[C@H](CCC(=O)O)NC1=O`, the pKi was 7.81 at hMC5-R [1] (Ki hMC5-R, Table 6) and 9.35 on hMC4-R [2] (Ki hMC4-R, Table 6). In addition, the pEC50 is 6.63 at hMC1-R [3] and 6.60 on hMC5-R [5]. At hMC4-R [4], the Kb is 10 nM.

Consider `CCCC[C@H](NC(C)=O)C(=O)N[C@H]1CSSC[C@@H](C(N)=O)NC(=O)[C@H](Cc2csc3ccccc23)NC(=O)[C@H](CCCNC(=N)N)NC(=O)[C@@H](Cc2ccc3ccccc3c2)NC(=O)[C@H](Cc2c[nH]cn2)NC(=O)[C@@H](C)NC1=O` [Ac-Nle-c(Cys-D-Ala-His-D-2-Nal-Arg-Bal-Cys)-NH2] (Ac-[Nle]C[dA]H[d2Nal]R[Bta]C-NH2; disulfide 2-8), for which the pKi is 7.90 at hMC3-R [6] (read-out: Ki hMC3-R); 6.90 on hMC5-R [1] (Table 5, read-out: Ki hMC5-R); 7.65 on hMC1-R [7] (Table 5, read-out: Ki hMC1-R).

Regarding `CC(=O)N[C@@H](CC1CCCCC1)C(=O)N[C@H]1CC(=O)NCCCC[C@@H](C(N)=O)NC(=O)CCCNC(=O)[C@H](Cc2c[nH]c3ccccc23)NC(=O)[C@H](CCCNC(=N)N)NC(=O)[C@@H](Cc2ccccc2)NC(=O)[C@H](Cc2c[nH]cn2)NC1=O` [Ac-Cha-c(Asp-His-D-Phe-Arg-Trp-Gaba-Lys)-NH2], the pKi at hMC4-R [2] (Table 5, read-out: Ki KMC4-R) was 8.83. Besides, the pEC50 at hMC1-R [3] (setting [9]) is 8.49; at hMC4-R [4] (setting [10]) it was 10.02; at hMC5-R [5] (setting [11]), 7.52; on hMC3-R [8] (setting [12]) it was 9.72.

Turning to `CC(=O)N[C@H](CCCNC(=N)N)C(=O)N[C@H]1CSSC(C)(C)[C@@H](C(N)=O)NC(=O)[C@H](Cc2c[nH]c3ccccc23)NC(=O)[C@H](CCCNC(=N)N)NC(=O)[C@@H](Cc2ccccc2)NC(=O)[C@H](Cc2c[nH]cn2)NC(=O)[C@@H](C)NC1=O` [Ac-D-Arg-c(Cys-D-Ala-His-D-Phe-Arg-Trp-Pen)-NH2], the pKi at hMC3-R [6] (Ki hMC3-R) was 7.88; on hMC5-R [1] (Ki hMC5-R, Table 5), 6.09; at hMC1-R [7] (Ki hMC1-R, Table 5) it was 8.08. In addition, the pEC50 on hMC1-R [3] is 7.58; on hMC4-R [4], 9.31; on hMC5-R [5], 5.61; on hMC3-R [8] it was 7.98.

Consider `CCCC[C@H](NC(C)=O)C(=O)N[C@H]1CSSC(C)(C)[C@@H](C(=O)O)NC(=O)[C@H](Cc2c[nH]c3ccccc23)NC(=O)[C@H](CCCNC(=N)N)NC(=O)[C@@H](Cc2ccccc2)NC(=O)[C@H](Cc2c[nH]cn2)NC(=O)[C@@H](C)NC1=O` [Ac-Nle-c(Cys-D-Ala-His-D-Phe-Arg-Trp-Pen)-OH], for which the pKi is 6.78 on hMC5-R [1] (Ki hMC5-R, Table 5) and 7.76 on hMC4-R [2] (Ki KMC4-R, Table 5).

Consider `CC[C@H](C)[C@@H]1NC(=O)N([C@H]2CSSC[C@@H](C(N)=O)NC(=O)[C@H](Cc3c[nH]c4ccccc34)NC(=O)[C@H](CCCNC(=N)N)NC(=O)[C@@H](Cc3ccccc3)NC(=O)[C@H](Cc3cnc[nH]3)NC(=O)[C@@H](C)NC2=O)C1=O` [c[Hydantoin(C(O)-(Ile-Cys))-D-Ala-His-D-Phe-Arg-Trp-Cys]-NH2], for which the pKi on hMC4-R [2] (Ki hMC4, Table 7) is 7.38; at hMC1-R [7] (Ki hMC1, Table 7) it was 7.27. Further, the pEC50 is 8.73 on hMC4-R [4] and 8.07 on hMC3-R [8].

For the molecule `CCCC[C@H](NC(C)=O)C(=O)N[C@H]1CSSC[C@@H](C(N)=O)NC(=O)CCCNC(=O)[C@H](Cc2c[nH]c3ccccc23)NC(=O)[C@H](CCCNC(=N)N)NC(=O)[C@@H](Cc2ccccc2)NC(=O)[C@H](Cc2cccnc2)NC1=O` [Ac-Nle-c(Cys-3-Pal-D-Phe-Arg-Trp-Gaba-Cys)-NH2], the pKi at hMC3-R [6] (read-out: Ki hMC3-R) was 6.82; at hMC5-R [1] (Table 5, read-out: Ki hMC5-R) it was 7.03; at hMC1-R [7] (Table 5, read-out: Ki hMC1-R), 7.68.

For `CCOc1ccc(C[C@H]2NC(=O)[C@H](Cc3c[nH]cn3)NC(=O)[C@@H](NC(=O)[C@H](N)Cc3ccccc3)CSSC[C@H](C(=O)N[C@H](C(N)=O)[C@@H](C)O)NC(=O)CCNC(=O)[C@H](Cc3c[nH]c4ccccc34)NC(=O)[C@H](CCCNC(=N)N)NC2=O)cc1` [D-Phe-c(Cys-His-D-(Et)Tyr-Arg-Trp-β-Ala-D-Cys)-Thr-NH2] (H-[dF]CH[dY](Et)RW[βAla][dC]T-NH2; disulfide 2-8), the pKi on hMC3-R [6] (read-out: Ki hMC3-R) is 8.03; at hMC5-R [1] (Table 5, read-out: Ki hMC5-R) it was 8.54; at hMC1-R [7] (Table 5, read-out: Ki hMC1-R) it was 10.30. Besides, the pEC50 on hMC1-R [3] (setting [9]) is 9.46; on hMC4-R [4] (setting [10]), 9.96; on hMC5-R [5] (setting [11]), 9.43; on hMC3-R [8] (setting [12]) it was 8.96.
